# Results: patent publication US10208083B2 (priority 2015, dated 2019)
# Marks after values point to notes of the source that are not given here.
# Key:
# [1] = tested on: UWB1.289; test: cells; type: cell-based, human; design: TGI: unit not given here
# [2] = tested on: UWB1.289 + BRCA1; test: cells; type: cell-based, human; design: TGI: unit not given here
# [3] = tested on: OVCAR-3; test: cells; type: cell-based, human; design: TGI: unit not given here
# [4] = tested on: SKOV-3; test: cells; type: cell-based, human; design: TGI: unit not given here
# [5] = tested on: MCF-7; test: cells; type: cell-based, human; design: TGI: unit not given here
# [6] = tested on: T-47D; test: cells; type: cell-based, human; design: TGI: unit not given here
# [7] = tested on: PC-3; test: cells; type: cell-based, human; design: TGI: unit not given here
# [8] = tested on: MOLT-4; test: cells; type: cell-based, human; design: TGI: unit not given here
# [9] = tested on: K-562; test: cells; type: cell-based, human; design: TGI: unit not given here
# [10] = tested on: murine P388 lymphocytic leukemia; design: species or system mice; settings: mouse, in vivo, ip; note: test concentration or dose not given here
# [11] = tested on: SCOV-3 human ovarian cancer; settings: in vivo; for OS % on Day-70: test concentration or dose not given here; for PFS % on Day-70: test concentration or dose not given here
# [12] = tested on: C57Bl/6 mice; settings: female, C57Bl/6, mouse, in vivo, ip
# [13] = in vivo; settings: female, C57Bl/6, mouse, ip
compound,measurement,setting,value
C[C@]12CC[C@H](OC(=O)CCOc3ccc(N(CCCl)CCCl)cc3)CC1=CC(=O)N[C@@H]1[C@@H]2CC[C@]2(C)C(=O)CC[C@@H]12 [Compound 18],TGI,[1],42
same,GI50,"[1]; Homo sapiens, UWB1289, 48 h",13 µM
same,IC50,"[1]; Homo sapiens, UWB1289, 48 h",70 µM
same,TGI,[2],38
same,GI50,"[2]; Homo sapiens, UWB1289, 48 h",20 µM
same,IC50,"[2]; Homo sapiens, UWB1289, 48 h",69 µM
same,TGI,[3],47
same,GI50,"[3]; Homo sapiens, OVCAR-3, 48 h",20 µM
same,IC50,"[3]; Homo sapiens, OVCAR-3, 48 h",70 µM
same,TGI,[4],46
same,GI50,"[4]; Homo sapiens, SK-OV-3, 48 h",24 µM
same,IC50,"[4]; Homo sapiens, SK-OV-3, 48 h",68 µM
same,TGI,[5],46
same,GI50,"[5]; Homo sapiens, MCF7, 48 h",21 µM
same,IC50,"[5]; Homo sapiens, MCF7, 48 h",79 µM
same,TGI,[6],32
same,GI50,"[6]; Homo sapiens, T47D, 48 h",14 µM
same,IC50,"[6]; Homo sapiens, T47D, 48 h",72 µM
same,TGI,[7],36
same,GI50,"[7]; Homo sapiens, PC-3, 48 h",23 µM
same,IC50,"[7]; Homo sapiens, PC-3, 48 h",70 µM
same,TGI,[8],38
same,GI50,"[8]; Homo sapiens, MOLT-4, 48 h",5 µM
same,IC50,"[8]; Homo sapiens, MOLT-4, 48 h",76 µM
same,TGI,[9],38
same,GI50,"[9]; Homo sapiens, K562, 48 h",6 µM
same,IC50,"[9]; Homo sapiens, K562, 48 h",87 µM
same,Cures,[10],0/6
same,MST ± SD,[10],34 days
same,T/C %,[10],378* %
same,OS % on Day-70,[11],100%
same,PFS % on Day-70,[11],80%
same,TI % at Day-35,[11],44%
same,LD10,[12],85 mg/kg
same,LD50,[13],110 mg/kg
